The values that follow are results of earlier work, collected in patent US20050260263A1, “Sustained release formulation for sparingly soluble main drugs” (Panion & BF Biotech Inc., priority 2004, published 2005).

Read-outs that look alike come from different tables or passages of the source.

Turning to `CC[C@H]1OC(=O)[C@H](C)[C@@H](O[C@H]2C[C@@](C)(OC)[C@@H](O)[C@H](C)O2)[C@H](C)[C@@H](O[C@@H]2O[C@H](C)C[C@H](N(C)C)[C@H]2O)[C@](C)(O)C[C@@H](C)C(=O)[C@H](C)[C@@H](O)[C@]1(C)O` [Erythromycin], the Solubility result (water) was “only slightly soluble”.
For the compound `CC[C@H]1OC(=O)[C@H](C)[C@@H](O[C@H]2C[C@@](C)(OC)[C@@H](O)[C@H](C)O2)[C@H](C)[C@@H](O[C@@H]2O[C@H](C)C[C@H](N(C)C)[C@H]2O)[C@](C)(OC)C[C@@H](C)C(=O)[C@H](C)[C@@H](O)[C@]1(C)O` [clarithromycin], the Solubility entry is on record as “very soluble” (gastric fluid), “poorly soluble” (region of the lower intestine (pH 6 to 8)) and “fairly soluble” (upper region of the small intestine (pH 5.0)).
